How the values were obtained:
[1] = Biodegradability in seawater (OECD Guideline 306); conditions: marine environment
Method: The biodegradability tests are carried out in a marine environment according to the OECD Guideline 306.

[2] = test system: freshwater algae (Pseudokirchneriella subcapitata); assay: Algal toxicity, growth inhibition of freshwater algae over 72 hours (OECD Guideline 201); format: cell-based; conditions: inhibition of 50% of algal growth
Method: The toxicity of the substances for the environment can be measured with regard to various standardized tests. One of the more sensitive consists of the measurement of the toxicity with regard to freshwater algae (Pseudokirchneriella subcapitata). The test is carried out according to the OECD Guideline 201. It consists in evaluating the inhibition of the growth of the algae over a period of time of 72 hours. The characteristic parameter is the EC50, which is the concentration of the substance which brings about inhibition of 50% of the algal growth during the test.

Compound | OECD 306 Biodegradability, % of biodegradation in 28 days [1] [%] | Algal toxicity (EC50 in mg/l) [2] [mg/L]
CCCCCCCCC=CCCCCCCCC1=NCCN1CCN [Imidazoline A, N-aminoethyl-2-heptadecenylimidazoline] | 57 | 0.0047
N-aminoethyl-2-heptadecenylimidazoline maleate [Example 2] | 66 | 1

— patent US20110186299A1, “Low-Toxicity Biodegradable Corrosion Inhibitors” (priority 2008, published 2011)
